Like-named read-outs stand apart in the source and are kept apart here.
Tests used:
AKT1 PH-domain = target: T1, AKT1 PH-domain (Homo sapiens, UniProt P31749); test: Surface plasmon resonance binding to AKT PH-domain; details: SPR; ND = no binding determined
T1 construct: The PH-domain His-fusion proteins (CNK1 and AKT1) were expressed and immobilized on a NTA chip; made in house
Description: All interaction analyses were done with a Biacore T200 Control Software v3.2, and BIAevaluation v2.0 analysis software (Biacore). The PH-domain His-fusion proteins (CNK1 and AKT1) were expressed and immobilized on a NTA chip to a level of 10,000 response units or less. Small molecule analytes at concentrations ranging from 50 μM to 0.010 μM were injected at a high flow rate (30 μL/min). DMSO concentrations in all samples and running buffer were 1-5% (v/v) […]
A commercially available docking package GLIDE was chosen as the docking algorithm used to select and optimize compounds, providing a GlideScore as a rough estimate of binding affinity that was used to rank and select the best compounds. Additionally, ligand-based approaches provided an alternative to structure based drug discovery. Ligand-based virtual screening methodologies can take into account shape and electrostatics and the pharmacophoric features (acceptor, donor, hydrophobic, aromatic, etc.) of its functional groups. Inositol tetraphosphate (IP4) binding to the PH-domain of CNKSR1 provided a good starting point for shape screening. Both structure-based and ligand-based approaches were used to find novel compounds and to refine and improve lead compounds (Tables 2, 3 and 4). SPR interaction analyses for the compounds were performed with a Biacore T200, using BiacoreT200 Control Software v3.2 and BIAevaluation v2.0analysis software (Biacore).

PH-domain of CNKSR1 = target: T2, PH-domain of CNKSR1 (Homo sapiens, UniProt Q969H4); test: Surface plasmon resonance binding to CNK PH-domain
T2 construct: The PH-domain His-fusion proteins (CNK1 and AKT1) were expressed and immobilized on a NTA chip; made in house
T2 sequence (Q969H4 403-502 limits assumed): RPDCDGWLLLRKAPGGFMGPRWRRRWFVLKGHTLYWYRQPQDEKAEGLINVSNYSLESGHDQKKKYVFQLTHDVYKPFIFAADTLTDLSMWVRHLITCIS
From the text: The PH-domain His-fusion proteins (CNK1 and AKT1) were expressed and immobilized on a NTA chip to a level of 10,000 response units or less.
Additionally, ligand-based approaches provided an alternative to structure based drug discovery.

mut-KRAS cells = test: Proliferation assay, mut-KRAS cell lines; type: cell-based; details: read-out: Ave IC50 mut-KRAS
Description: (§1) These cells were cultured in McCoys media with 10% FBS to 80% confluency. […] Cells were incubated for 72 hours with the drugs, and then viability was assessed using an MTS viability assay. Cells were exposed to MTS reagent (Promega) dissolved in PBS (Hyclone) at a concentration of 200 μL reagent/mL media for 2 hours. Absorbance was then read at 490 nm, and viability was expressed as a percentage normalized between the negative control (no cells plated) and the condition of cells with no drug added (100% viability) normalized as the upper limit of viability. A panel of 30 cell lines and an extensive characterization were obtained from Dr. John Minna (UTSW). All cell lines were cultured in RPMI 1640 with 10% FBS. […] IC50's were determined using Excelfit.

wt-KRAS cells = test: Proliferation assay, wt-KRAS cell lines; type: cell-based; details: read-out: Ave IC50 wt-KRAS
Description: as §1

mut-KRas NSCLC lines [1] = test: Proliferation assay 2D, mut-KRas NSCLC lines; type: cell-based; details: for In vitro IC50 against mut-KRas NSCLC 2D ave: mean of 12 mut-KRas NSCLC lines; for IC50: range across mut-Kras cell lines, read-out: In vitro IC50 against mut-KRas NSCLC 2D range
Description: A panel of 30 cell lines and an extensive characterization were obtained from Dr. John Minna (UTSW). All cell lines were cultured in RPMI 1640 with 10% FBS. Cells were treated with concentrations of agents at concentrations 0.01 to 50 μM and evaluated as described above. IC50's were determined using Excelfit.

Pharmacokinetics (PK) = type: in vivo; design: AUC: concentration or dose not given beside the values; details: for half-life: read-out: PK T1/2 (converted)
mut-KRas NSCLC lines [2] = test: Proliferation assay 3D, mut-KRas NSCLC lines; type: cell-based; details: for In vitro IC50 against mut-KRas NSCLC 3D ave: mean of 6 mut-KRas NSCLC lines; for IC50: range across mut-Kras cell lines, read-out: In vitro IC50 against mut-KRas NSCLC 3D range
Description: The plates were optimized for the best cell density and found to be 20,000 cells per mL. The lid was removed from a 96-well Greiner plate and turned upside down. 20 μL of the 20,000 cells per mL suspension was then added directly into the middle of the circles found on the lid of the 96-well plate forming a small drop. 100 μL of media was added into the corresponding wells, used to maintain the […] of the drops, and the lid was flipped back over carefully placing it back onto the plate without disturbing the drop. The plate was then placed into the incubator for 3 days to allow the cells to migrate to the bottom of the drop due to gravity. After 3 days, […] of media was added to the corresponding wells a SCIVAX 96-well plate. The lid from the Greiner 96-well plate was removed and placed onto the SCIVAX plate allowing the drop to come in contact with the media and placed back into the incubator. After one hour, 200 μL of media was removed from the corresponding wells carefully without disturbing the spheroid and imaged.

CNK1 = target: T3, CNK1 (Homo sapiens, UniProt Q969H4); test: SPR competition, CNK1 binding to PIP3; details: read-out: SPR Competition Percent inhibition of CNK1 binding to PIP3 at 50 μM, X = none
T3 construct: The PH-domain His-fusion proteins (CNK1 and AKT1) were expressed and immobilized on a NTA chip; made in house
T3 sequence (Q969H4 403-502 limits assumed): T2 sequence (Q969H4 403-502 limits assumed)

[3] = Summary table for CNKSR1 inhibitors, read-out: SPR Kd

T1 sequence (P31749 5-108 limits assumed): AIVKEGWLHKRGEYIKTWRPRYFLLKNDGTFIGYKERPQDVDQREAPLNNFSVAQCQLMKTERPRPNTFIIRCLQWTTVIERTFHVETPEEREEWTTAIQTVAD

Compound	IC50 (mut-KRAS cells)	IC50 (wt-KRAS cells)	In vitro IC50 against mut-KRas NSCLC 2D ave (mut-KRas NSCLC lines [1])	IC50 (mut-KRas NSCLC lines [1])	half-life (Pharmacokinetics (PK); in vivo)	IC50 (mut-KRas NSCLC lines [2])	AUC (Pharmacokinetics (PK); in vivo)	further results
COc1c(/C=C/C(=O)O)cc(NS(=O)(=O)c2cccs2)c2c1OCO2 [Compound 84, (E)-3-(4-methoxy-7-(thiophene-2-sulfonamido)benzo[d][1,3]dioxol-5-yl)acrylic acid]	–	–	–	–	–	–	–	AKT KD (AKT1 PH-domain): No binding
CCOC(=O)CCc1cc(NS(=O)(=O)c2cccs2)c2c(c1OC)OCO2 [Compound 85, ethyl 3-(4-methoxy-7-(thiophene-2-sulfonamido)benzo[d][1,3]dioxol-5-yl)propanoate]	–	–	–	–	–	–	–	Kd (PH-domain of CNKSR1; SPR, ND = no binding determined, read-out: CNK KD): > 500 µM; Kd (AKT1 PH-domain): > 500 µM
CCNC(=O)/C=C/c1c(NS(=O)(=O)c2cccs2)cc2c(c1OC)OCO2 [Compound 105]	10 µM	100 µM	6.7 µM	1.6 to 94 µM	–	–	–	–
CN1CC(=O)N(/C=C/c2cc(NS(=O)(=O)c3cccs3)c3c(c2O)OCO3)C1=O [Compound 91, (E)-N-(7-hydroxy-6-(2-(3-methyl-2,5-dioxoimidazolidin-1-yl)vinyl)benzo[d][1,3]dioxol-4-yl)thiophene-2-sulfonamide]	–	–	23 µM	6 to 35 µM	60 min	–	–	Kd (PH-domain of CNKSR1; [3]): 36 µM; Cmax (Pharmacokinetics (PK); in vivo, printed in the T1/2/AUC column): 2200 nM
COc1c(/C=C2\SC(=S)NC2=O)c(NS(=O)(=O)c2cccs2)cc2c1OCO2 [Compound 103]	–	–	25 µM	5.1 to 60 µM	–	–	–	IC50 (mut-KRAS cells; average over mut-KRAS lines): 14.7 µM; IC50 (wt-KRAS cells; average over wt-KRAS lines): 95 µM
CCOC(=O)/C=C/c1cc(NS(=O)(=O)c2cccs2)c2c(c1OC)OCO2 [Compound 86, (E)-ethyl 3-(4-methoxy-7-(thiophene-2-sulfonamido)benzo[d][1,3]dioxol-5-yl)acrylate]	–	–	–	–	–	–	–	Kd (AKT1 PH-domain): > 500 µM
CCOC(=O)/C=C/c1c(NS(=O)(=O)c2cccs2)cc2c(c1OC)OCCO2 [Compound 113]	55.1 µM	100 µM	25 µM	13.7 to 100 µM	–	–	–	–
COc1c(/C=C/CO)c(NS(=O)(=O)c2cccs2)cc2c1OCCO2 [Compound 115]	39.1 µM	100 µM	11.2 µM	1.6 to 100 µM	–	–	–	–
COc1c(/C=C/C(=O)NCC(C)O)c(NS(=O)(=O)c2cccs2)cc2c1OCO2 (centres unmarked) [Compound 112]	25 µM	100 µM	65 µM	19 to 100 µM	–	–	–	–
COc1c(/C=C/C(N)=O)c(NS(=O)(=O)c2cccs2)cc2c1OCO2 [Compound 107]	1.5 µM	100 µM	19.5 µM	1 to 100 µM	192 min	820 to 75000 nM	34500 ng·h/mL	In vitro IC50 against mut-KRas NSCLC 3D ave (mut-KRas NSCLC lines [2]): 1.5 µM
COc1c(/C=C/C(=O)NCc2ccco2)c(NS(=O)(=O)c2cccs2)cc2c1OCO2 [Compound 108]	5.2 µM	100 µM	35 µM	0.2 to 100 µM	60 min	–	3410 ng·h/mL	–
CNC(=O)/C=C/c1c(NS(=O)(=O)c2cccs2)cc2c(c1OC)OCO2 [Compound 106]	8.4 µM	68 µM	16.3 µM	0.8 to 100 µM	102 min	96 to 75000 nM	7000 ng·h/mL	In vitro IC50 against mut-KRas NSCLC 3D ave (mut-KRas NSCLC lines [2]): 8.4 µM
CCOC(=O)/C=C/c1cc(NS(=O)(=O)c2cccs2)c2c(c1OC)OCCO2 [Compound 116]	–	–	–	–	–	–	–	IC50 (mut-KRAS cells; average over mut-KRAS lines): 100 µM
O=c1ccoc2c3c(cc(NS(=O)(=O)c4cccs4)c12)OCO3 [Compound 104]	–	–	–	–	–	–	–	inhibition at 50 µM (CNK1): 0%; IC50 (mut-KRAS cells; average over mut-KRAS lines): 16.6 µM; IC50 (wt-KRAS cells; average over wt-KRAS lines): 100 µM
COc1c(/C=C/CO)c(NS(=O)(=O)c2cccs2)cc2c1OCO2 [Compound 152, N-{6-[(1E)-3-hydroxyprop-1-en-1-yl]-7-methoxy-2H-1,3-benzodioxol-5-yl}thiophene-2-sulfonamide]	–	–	20 µM	0.1 to 100 µM	186 min	15 to 260 nM	7000 ng·h/mL	–
COc1c(/C=C/C(=O)N2CCN(C)CC2)c(NS(=O)(=O)c2cccs2)cc2c1OCO2 [Compound 111]	4.1 µM	33.7 µM	19.2 µM	0.6 to 100 µM	60 min	120 to 13200 nM	30000 ng·h/mL	In vitro IC50 against mut-KRas NSCLC 3D ave (mut-KRas NSCLC lines [2]): 4.1 µM
COc1c(/C=C/C(=O)NC2CC2)c(NS(=O)(=O)c2cccs2)cc2c1OCO2 [Compound 110]	–	–	15.7 µM	4.3 to 100 µM	–	230 to 75000 nM	–	Kd (PH-domain of CNKSR1; [3]): < 50 µM; inhibition at 50 µM (CNK1): 0%; IC50 (mut-KRAS cells; average over mut-KRAS lines): 1.2 µM; IC50 (wt-KRAS cells; average over wt-KRAS lines): 35.7 µM; In vitro IC50 against mut-KRas NSCLC 3D ave (mut-KRas NSCLC lines [2]): 1.2 µM
COc1c(/C=C/C(=O)N2CCOCC2)c(NS(=O)(=O)c2cccs2)cc2c1OCO2 [Compound 109]	6.5 µM	100 µM	18.9 µM	0.1 to 100 µM	45 min	–	1200 ng·h/mL	–
COc1c(/C=C/C(=O)O)c(NS(=O)(=O)c2cccs2)cc2c1OCCO2 [Compound 114]	85 µM	100 µM	57 µM	12.1 to 100 µM	–	–	–	–
CCOC(=O)/C=C/c1c(NS(=O)(=O)c2cccs2)cc2c(c1OC)OCO2 [Compound 151, ethyl 3-[4-methoxy-6-(thiophene-2-sulfonamido)-2H-1,3-benzodioxol-5-yl]prop-2-enoate]	–	–	18 µM	0.5 to 100 µM	30 min	25 to 2700 nM	–	In vitro IC50 against mut-KRas NSCLC 3D ave (mut-KRas NSCLC lines [2]): 0.69 µM; PK metabolism (remark in place of AUC) (Pharmacokinetics (PK); AUC NA): rapid

From US10227356B2, “Compounds, compositions and methods for inhibiting CNKSR1” (Phusis Therapeutics, Inc., priority 2015, dated 2019)
